Experimental data from patent publication US9969742B2, “Imidazotriazinone compounds” (Ironwood Pharmaceuticals, Inc., priority 2012, dated 2018).

Experiments:
Assay type in all cases: biochemical
PDE1B = target: T1, PDE1B (Homo sapiens, UniProt Q01064); experiment: Phosphodiesterase enzyme screening assay, PDE1B; conditions: Table 1; ratio of IC50 values; value greater than 1 indicates greater selectivity for PDE9A2
T1 construct: purchased Reaction Biology Corporation, Malvern, Pa
From the text: (§1) Compounds of the invention were screened against PDE1A, PDE1B, PDE2A, PDE3A, PDE3B, PDE4A1A, PDE4B1, PDE4D3, PDE5A1, PDE6C, PDE7A, PDE8A1, PDE9A2, PDE10A2 AND PDE11A isoforms of the phosphodiesterase enzyme to determine activity and overall selectivity through comparative analysis. […] Where 8-methoxy-IBMX and Zaprinast were used as reference inhibitors.
(§2) The phosphodiesterase enzyme isoforms were obtained from a commercial retailer (Reaction Biology Corporation, Malvern, Pa.) for use in the instant screening assay.
(§3) The analysis was completed using the Caliper LabChip 3000 and a 12-sipper LabChip. LabChip assays are separations-based, meaning that the product and substrate are electrophoretically separated, thereby minimizing interferences and yielding the highest data quality available on any screening platform. […] High Z′ values, few false positives, few false negatives and analytical quality reproducibility are the reasons cited for the increasing reliance on the LabChip assays.
(§4) The off-chip incubation mobility-shift phosphodiesterase assay uses a microfluidic chip to measure the conversion of a fluorescent cyclic AMP substrate to a 5′-AMP product, or a cyclic GMP substrate to a 5′-GMP product. The reaction mixture, from a microtiter plate well, is introduced through a capillary sipper onto the chip, where the fluorescent substrate and product are separated by electrophoresis and detected via laser-induced fluorescence. […] The precision of microfluidics allows researchers to detect subtle interactions between drug candidates and therapeutic targets.
(§5) Reactions were carried out in 100 mM HEPES (pH 7.5), 5 mM MgCl2, 1 mM DTT, 0.003% Brij, 4.0 μM cGMP substrate. The reaction was started by addition of cGMP or cAMP and incubated for 1 hour at R.T. The reaction was terminated by the addition of stop buffer containing 100 mM HEPES (pH 7.5), 15 mM EDTA, 0.015% Brij-35, 5% DMSO. Cyclic AMP/GMP substrate and 5′-AMP/5′-GMP product were separated by charge using electrophoretic mobility shift. Product formed was compared to control wells to determine inhibition or enhancement of enzyme activity.
(§6) Data points were averages of quadruplicate wells and error bars represented the SEM for each point.

PDE1A = target: T2, PDE1A (Homo sapiens, UniProt P54750); experiment: Phosphodiesterase enzyme screening assay, PDE1A; conditions: Table 1; ratio of IC50 values; value greater than 1 indicates greater selectivity for PDE9A2
T2 construct: purchased Reaction Biology Corporation, Malvern, Pa
From the text: as §1, §2, §3, §4, §5, §6

PDE9A2 = target: T3, PDE9A2 (Homo sapiens, UniProt O76083); experiment: Phosphodiesterase enzyme screening assay, PDE9A2; conditions: Table 1; 10 concentrations; 4.0 μM cGMP substrate; 1 hour at R.T.; read-out: Band (PDE9A2 IC50)
T3 construct: purchased Reaction Biology Corporation, Malvern, Pa
Procedure, shortened: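 Microfluidic mobility-shift assay; values from quadruplicate wells relative to controls. Conditions: 4.0 μM cGMP, 5 mM MgCl2, pH 7.5 HEPES, 1 h R.T., EDTA stop.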

T1 sequence (Q01064 whole entry): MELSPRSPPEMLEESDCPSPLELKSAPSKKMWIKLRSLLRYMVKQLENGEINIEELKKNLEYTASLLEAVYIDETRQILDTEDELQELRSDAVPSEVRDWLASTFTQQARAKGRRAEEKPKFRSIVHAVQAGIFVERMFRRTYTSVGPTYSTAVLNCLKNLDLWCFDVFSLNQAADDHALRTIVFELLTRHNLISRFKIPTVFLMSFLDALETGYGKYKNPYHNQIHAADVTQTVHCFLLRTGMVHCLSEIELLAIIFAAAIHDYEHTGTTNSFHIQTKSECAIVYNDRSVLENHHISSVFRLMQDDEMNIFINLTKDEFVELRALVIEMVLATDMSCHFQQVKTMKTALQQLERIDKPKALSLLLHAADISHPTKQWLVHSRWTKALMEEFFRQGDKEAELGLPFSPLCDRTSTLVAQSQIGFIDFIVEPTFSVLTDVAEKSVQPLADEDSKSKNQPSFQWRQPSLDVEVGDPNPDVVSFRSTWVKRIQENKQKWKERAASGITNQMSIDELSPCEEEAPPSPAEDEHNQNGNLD
T2 sequence (P54750 whole entry): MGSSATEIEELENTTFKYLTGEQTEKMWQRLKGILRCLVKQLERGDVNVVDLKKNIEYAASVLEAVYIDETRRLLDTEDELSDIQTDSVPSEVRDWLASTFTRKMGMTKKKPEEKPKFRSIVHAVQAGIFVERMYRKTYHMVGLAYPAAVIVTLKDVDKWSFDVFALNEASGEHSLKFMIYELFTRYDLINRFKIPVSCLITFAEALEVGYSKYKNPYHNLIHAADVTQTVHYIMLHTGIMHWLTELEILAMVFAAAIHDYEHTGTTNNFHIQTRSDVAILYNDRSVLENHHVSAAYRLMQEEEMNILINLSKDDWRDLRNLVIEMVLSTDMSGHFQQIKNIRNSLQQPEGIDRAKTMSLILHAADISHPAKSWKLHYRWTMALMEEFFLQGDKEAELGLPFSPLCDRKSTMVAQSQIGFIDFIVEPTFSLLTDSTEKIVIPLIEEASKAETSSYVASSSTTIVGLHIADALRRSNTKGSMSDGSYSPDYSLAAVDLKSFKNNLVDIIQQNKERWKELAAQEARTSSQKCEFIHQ
T3 sequence (O76083 1-533 isoform O76083-2): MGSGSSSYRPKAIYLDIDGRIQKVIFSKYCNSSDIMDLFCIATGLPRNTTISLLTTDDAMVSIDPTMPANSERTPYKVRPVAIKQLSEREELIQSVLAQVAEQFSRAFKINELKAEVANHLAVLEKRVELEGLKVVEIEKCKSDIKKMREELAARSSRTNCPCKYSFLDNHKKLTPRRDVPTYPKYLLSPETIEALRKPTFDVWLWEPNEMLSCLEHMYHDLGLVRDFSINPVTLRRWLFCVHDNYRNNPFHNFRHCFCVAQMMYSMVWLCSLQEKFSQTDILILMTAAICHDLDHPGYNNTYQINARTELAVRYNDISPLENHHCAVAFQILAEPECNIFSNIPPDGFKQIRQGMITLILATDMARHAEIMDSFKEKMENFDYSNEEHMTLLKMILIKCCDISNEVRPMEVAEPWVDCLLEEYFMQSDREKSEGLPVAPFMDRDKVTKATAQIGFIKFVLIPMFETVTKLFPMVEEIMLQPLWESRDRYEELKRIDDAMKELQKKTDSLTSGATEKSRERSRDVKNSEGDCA

| SMILES | PDE1B selectivity (versus PDE9A2) (PDE1B) | PDE1A selectivity (versus PDE9A2) (PDE1A) | IC50 (PDE9A2) [nM] |
| --- | --- | --- | --- |
| C[C@@H]1CN(Cc2cn3ncccc3n2)C[C@H]1c1nn2c(C3CCOCC3)ncc2c(=O)[nH]1 (relative stereo) [(+)-2-((3,4-trans)-1-(imidazo[1,2-b]pyridazin-2-ylmethyl)-4-methylpyrrolidin-3-yl)-7-(tetrahydro-2H-pyran-4-yl)imidazo[5,1-f][1,2,4]triazin-4(3H)-one] | 1413 | 1005 | < 1000 |
| CC(=O)N1CCC(c2ncc3c(=O)[nH]c(C4CN(Cc5ccccc5)CC4C)nn23)CC1 (single isomer, unassigned; (+)) [(+)-7-(1-acetylpiperidin-4-yl)-2-((3,4-trans)-1-benzyl-4-methylpyrrolidin-3-yl)imidazo[5,1-f][1,2,4]triazin-4(3H)-one] | 232 | 177 |  |
| CC1CN(Cc2cccc(F)c2)CC1c1nn2c(C3CCOCC3)ncc2c(=O)[nH]1 (single isomer, unassigned; (-)) [(−)-2-((3,4-trans)-1-(3-fluorobenzyl)-4-methylpyrrolidin-3-yl)-7-(tetrahydro-2H-pyran-4-yl)imidazo[5,1-f][1,2,4]triazin-4(3H)-one] | 1140 | 1110 |  |
| CC1CN(C(=O)c2ccc(F)cc2)CC1c1nn2c(C3CCOCC3)ncc2c(=O)[nH]1 (single isomer, unassigned; (-)) [(−)-2-((3,4-trans)-1-(4-fluorobenzoyl)-4-methylpyrrolidin-3-] [(−)-2-((3,4-trans)-1-(4-fluorobenzoyl)-4-methylpyrrolidin-3-yl)-7-(tetrahydro-2H-pyran-4-yl)imidazo[5,1-f][1,2,4]triazin-4(3H)-one] | 23 | 12 |  |
| CC1CN(C(=O)c2ccccc2)CC1c1nn2c(C3CCOCC3)ncc2c(=O)[nH]1 (single isomer, unassigned; (-)) [(−)-2-((3,4-trans)-1-benzoyl-4-methylpyrrolidin-3-yl)-7-(tet] [(−)-2-((3,4-trans)-1-benzoyl-4-methylpyrrolidin-3-yl)-7-(tetrahydro-2H-pyran-4-yl)imidazo[5,1-f][1,2,4]triazin-4(3H)-one] | 32 | 26 |  |

The next lines start with the values.

| PDE1B selectivity (versus PDE9A2) (PDE1B) | PDE1A selectivity (versus PDE9A2) (PDE1A) | IC50 (PDE9A2) [nM] | SMILES |
| --- | --- | --- | --- |
| 313 | 165 |  | CC1CN(Cc2ncccn2)CC1c1nn2c(C3CCC(F)(F)CC3)ncc2c(=O)[nH]1 (single isomer, unassigned; (+)) [(+)-7-(4,4-difluorocyclohexyl)-2-((3,4-trans)-4-methyl-1-(pyrimidin-2-ylmethyl)pyrrolidin-3-yl)imidazo[5,1-f][1,2,4]triazin-4(3H)-one] |
| 102 | 158 |  | Cc1ccc(F)cc1-c1ncc2c(=O)[nH]c(C3CN(Cc4ncccn4)CC3C)nn12 (single isomer, unassigned; (+)) [(+)-7-(5-fluoro-2-methylphenyl)-2-((3,4-trans)-4-methyl-1-(p] [(+)-7-(5-fluoro-2-methylphenyl)-2-((3,4-trans)-4-methyl-1-(pyrimidin-2-ylmethyl)pyrrolidin-3-yl)imidazo[1,5-f][1,2,4]triazin-4(3H)-one] |
| 175 | 132 |  | Cc1cc(F)ccc1-c1ncc2c(=O)[nH]c(C3CN(Cc4ncccn4)CC3C)nn12 (single isomer, unassigned; (-)) [(−)-7-(4-fluoro-2-methylphenyl)-2-((3,4-trans)-4-methyl-1-(pyrimidin-2-ylmethyl)pyrrolidin-3-yl)imidazo[5,1-f][1,2,4]triazin-4(3H)-one] |
